Measurements reported in PubChem BioAssay AID248 (DTP/NCI, 2004).
“And” between values parts separate entries of the source, which are not always exact repeats. Identical values can stand only once. Inconclusive results and toxic doses are left out. Rule as the data show it: active = T/C of 150% or more; inactive = T/C below 125%.

System: L1210 leukemia ip in BDF1 mice, survival T/C
Assay: NCI In Vivo Anticancer Drug Screen. Data for tumor model L1210 Leukemia (intraperitoneal) in B6D2F1 (BDF1) mice
Conditions: endpoint: mean survival time, higher = longer survival
Procedure, shortened: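 Survival endpoint. Drug-treated group vs vehicle group, expressed as T divided by C. Tumor passaged by transplantation.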

[1] = dose: 100.0 mg/kg/injection, schedule: Q04DX002 (ip), vehicle: Klucel (hydroxypropylcellulose) (HPC)
[2] = dose: 200.0 mg/kg/injection, schedule: Q04DX002 (ip), vehicle: Klucel (hydroxypropylcellulose) (HPC)
[3] = dose: 400.0 mg/kg/injection, schedule: Q04DX002 (ip), vehicle: Klucel (hydroxypropylcellulose) (HPC)
[4] = dose: 100.0 mg/kg/injection, schedule: Q01DX009 (ip), vehicle: Klucel (hydroxypropylcellulose) (HPC)
[5] = dose: 200.0 mg/kg/injection, schedule: Q01DX009 (ip), vehicle: Klucel (hydroxypropylcellulose) (HPC)
[6] = dose: 400.0 mg/kg/injection, schedule: Q01DX009 (ip), vehicle: Klucel (hydroxypropylcellulose) (HPC)
[7] = dose: 100.0 mg/kg/injection, schedule: Q01DX001 (ip), vehicle: Klucel (hydroxypropylcellulose) (HPC)
[8] = dose: 200.0 mg/kg/injection, schedule: Q01DX001 (ip), vehicle: Klucel (hydroxypropylcellulose) (HPC)
[9] = dose: 400.0 mg/kg/injection, schedule: Q01DX001 (ip), vehicle: Klucel (hydroxypropylcellulose) (HPC)
[10] = dose: 50.0 mg/kg/injection, schedule: Q01DX009 (ip), vehicle: saline with Tween-80
[11] = dose: 100.0 mg/kg/injection, schedule: Q01DX009 (ip), vehicle: saline with Tween-80
[12] = dose: 200.0 mg/kg/injection, schedule: Q01DX009 (ip), vehicle: saline with Tween-80
[13] = dose: 200.0 mg/kg/injection, schedule: Q04DX003 (ip), vehicle: saline
[14] = dose: 400.0 mg/kg/injection, schedule: Q04DX003 (ip), vehicle: saline
[15] = dose: 100.0 mg/kg/injection, schedule: Q01DX001 (ip), vehicle: saline with Tween-80
[16] = dose: 200.0 mg/kg/injection, schedule: Q01DX001 (ip), vehicle: saline with Tween-80
[17] = dose: 400.0 mg/kg/injection, schedule: Q01DX001 (ip), vehicle: saline with Tween-80

Measured: T/C

CN(C)CCOC(=O)c1ccc(CCl)cc1
inactive: dose: 87.5 mg/kg/injection, schedule: Q01DX009 (ip), vehicle: saline 87 % of control | dose: 175.0 mg/kg/injection, schedule: Q01DX009 (ip), vehicle: saline 101 % of control

C/C(=C1\C(=O)Nc2ccccc21)c1cccnc1
inactive: dose: 25.0 mg/kg/injection, schedule: Q01DX Z (ip), vehicle: carboxymethylcellulose (CMC) 103 % of control | dose: 50.0 mg/kg/injection, schedule: Q01DX Z (ip), vehicle: carboxymethylcellulose (CMC) 96 % of control | dose: 100.0 mg/kg/injection, schedule: Q01DX Z (ip), vehicle: carboxymethylcellulose (CMC) 103 % of control | dose: 200.0 mg/kg/injection, schedule: Q01DX Z (ip), vehicle: carboxymethylcellulose (CMC) 111 % of control

CC(C)OC(=S)SC(C(=O)c1ccccc1)c1ccccc1 (stereo not drawn)
inactive: [1] 91 % of control | [2] 91 % of control | [3] 91 % of control

CC(=O)Nc1cc(C)c(C)cc1[N+](=O)[O-]
inactive: [4] 102 % of control | dose: 100.0 mg/kg/injection, schedule: Q04DX003 (ip), vehicle: Klucel (hydroxypropylcellulose) (HPC) 96 % of control | [5] 100 % of control | dose: 200.0 mg/kg/injection, schedule: Q04DX003 (ip), vehicle: Klucel (hydroxypropylcellulose) (HPC) 102 % of control | [6] 105 % of control | dose: 400.0 mg/kg/injection, schedule: Q04DX003 (ip), vehicle: Klucel (hydroxypropylcellulose) (HPC) 103 % of control

O=C(O)CCC(=O)c1ccc2c3c1CCCC3CC2 (stereo not drawn)
inactive: [1] 107 % of control | [2] 101 % of control | [3] 93 % of control

CCCCCCCCCCCCOc1ccc(C2(c3ccc(CCCCCCCCCCCC)cc3)CCCCC2)cc1
inactive: [7] 101 % of control | [8] 101 % of control | [9] 106 % of control

Cc1ccc(Cl)cc1NC(=O)c1ccccc1F
inactive: [1] 93 % of control | [2] 97 % of control | [3] 101 % of control

CN(C)c1ccc(/C=N/NC(=O)c2ccccc2NC(=O)c2ccccc2)cc1
inactive: [4] 89 % of control | [5] 100 % of control | [6] 89 % of control

CCCP(=S)(CC)CC
inactive: [1] 90 % of control | [2] 93 % of control | [3] 90 % of control

C/[N+]([O-])=N\Nc1c(Br)cc(Br)cc1Br
inactive: [10] 105 % of control | [11] 102 % of control | [12] 105 % of control

COc1ccc(OC)c(-c2nnc(Nc3ccc(S(=O)(=O)N4CCCCC4)cc3)s2)c1
inactive: [4] 94 % of control | [5] 91 % of control | [6] 91 % of control

Nc1ncnc2c1ncn2C1OC(CO)C(O)C1O.[Cl][Pt][Cl] (stereo not drawn)
inactive: dose: 100.0 mg/kg/injection, schedule: Q01DX009 (ip), vehicle: water 97 % of control | dose: 100.0 mg/kg/injection, schedule: Q04DX003 (ip), vehicle: water 94 % of control | dose: 200.0 mg/kg/injection, schedule: Q01DX009 (ip), vehicle: water 103 % of control | dose: 200.0 mg/kg/injection, schedule: Q04DX003 (ip), vehicle: water 97 % of control | dose: 400.0 mg/kg/injection, schedule: Q01DX009 (ip), vehicle: water 100 % of control | dose: 400.0 mg/kg/injection, schedule: Q04DX003 (ip), vehicle: water 94 % of control

CC(=O)Oc1cccc(OC(=O)Nc2ccccc2F)c1
inactive: dose: 25.0 mg/kg/injection, schedule: Q01DX009 (ip), vehicle: saline with Tween-80 103 % of control | [10] 108 % of control | [11] 103 % of control and 113 % of control | [12] 95 % of control and 103 % of control

O=S(=O)(Oc1ccc(Cl)cc1)c1ccc(Cl)cc1
inactive: dose: 100.0 mg/kg/injection, schedule: Q01DX009 (ip), vehicle: saline 88 % of control | dose: 100.0 mg/kg/injection, schedule: Q04DX003 (ip), vehicle: saline 103 % of control | [13] 98 % of control | dose: 400.0 mg/kg/injection, schedule: Q01DX009 (ip), vehicle: saline 90 % of control | [14] 103 % of control

CCc1ccc(/C(C#N)=C/c2cccc3ccccc23)cc1
inactive: dose: 100.0 mg/kg/injection, schedule: Q04DX002 (ip), vehicle: alcohol 97 % of control | dose: 200.0 mg/kg/injection, schedule: Q04DX002 (ip), vehicle: alcohol 105 % of control | dose: 400.0 mg/kg/injection, schedule: Q04DX002 (ip), vehicle: alcohol 91 % of control

CSCC#N
inactive: [15] 93 % of control | [16] 96 % of control | [17] 96 % of control

C[Se]c1ncnc2c1ccn2C1OC(CO)C(O)C1O (stereo not drawn)
inactive: dose: 12.5 mg/kg/injection, schedule: Q01DX005 (ip), vehicle: saline 104 % of control | dose: 25.0 mg/kg/injection, schedule: Q01DX005 (ip), vehicle: saline 106 % of control | dose: 50.0 mg/kg/injection, schedule: Q01DX005 (ip), vehicle: saline 102 % of control

O=C(COc1ccc(Cl)c(Cl)c1)Nc1ccc[n+](Cc2cccc(S(=O)(=O)F)c2)c1
inactive: [7] 96 % of control | [8] 97 % of control

Cc1c(N)c(C)c(F)c(-c2c(N)c(C)c(N)c(C)c2F)c1N
inactive: [7] 92 % of control | [8] 97 % of control | [9] 104 % of control

COC1OC2COC(C2OS(=O)(=O)c2ccc(C)cc2)C1OS(=O)(=O)c1ccc(C)cc1 (stereo not drawn)
inactive: dose: 50.0 mg/kg/injection, schedule: Q04DX002 (ip), vehicle: Klucel (hydroxypropylcellulose) (HPC) 94 % of control | [1] 94 % of control | [2] 98 % of control

CC12C(=O)OC(=O)C1C1C=CC2CC1 (stereo not drawn)
inactive: dose: 100.0 mg/kg/injection, schedule: Q04DX003 (ip), vehicle: saline with Tween-80 101 % of control | dose: 200.0 mg/kg/injection, schedule: Q04DX003 (ip), vehicle: saline with Tween-80 98 % of control | dose: 400.0 mg/kg/injection, schedule: Q04DX003 (ip), vehicle: saline with Tween-80 101 % of control

CC(=O)Cc1cc(C)nc(NC#N)n1
inactive: [1] 102 % of control | [2] 98 % of control

O=C(NCc1ccc(Cl)cc1)NC1CCCCC1
inactive: [1] 100 % of control | [2] 100 % of control | [3] 106 % of control

Cc1ccc(OCCOc2ccc(N)cc2)cc1
inactive: dose: 100.0 mg/kg/injection, schedule: Q04DX003 (ip), vehicle: alcohol 92 % of control | dose: 200.0 mg/kg/injection, schedule: Q04DX003 (ip), vehicle: alcohol 95 % of control | dose: 400.0 mg/kg/injection, schedule: Q04DX003 (ip), vehicle: alcohol 90 % of control

CCN(CCNc1ccc(C)c2sc3ccccc3c(=O)c12)CC(C)(C)O
inactive: dose: 25.0 mg/kg/injection, schedule: Q01DX009 (ip), vehicle: saline sonified 97 % of control | dose: 32.0 mg/kg/injection, schedule: Q02DX Z (ip), vehicle: distilled water + alcohol 119 % of control | dose: 50.0 mg/kg/injection, schedule: Q01DX001 (ip), vehicle: saline 106 % of control | dose: 50.0 mg/kg/injection, schedule: Q01DX009 (ip), vehicle: saline sonified 95 % of control | dose: 60.0 mg/kg/injection, schedule: Q01DX009 (ip), vehicle: saline 120 % of control | dose: 100.0 mg/kg/injection, schedule: Q01DX001 (ip), vehicle: saline 112 % of control | dose: 100.0 mg/kg/injection, schedule: Q01DX009 (ip), vehicle: saline sonified 118 % of control | dose: 200.0 mg/kg/injection, schedule: Q01DX001 (ip), vehicle: saline 109 % of control | [13] 104 % of control | dose: 300.0 mg/kg/injection, schedule: Q01DX009 (ip), vehicle: saline 95 % of control | dose: 400.0 mg/kg/injection, schedule: Q01DX001 (ip), vehicle: saline 124 % of control | [14] 108 % of control
active: dose: 600.0 mg/kg/injection, schedule: Q04DX003 (ip), vehicle: saline 189 % of control

CCOC(=O)C(C)Oc1cccc(O)c1[N+](=O)[O-] (stereo not drawn)
inactive: [15] 95 % of control | [16] 97 % of control | [17] 90 % of control

O=C(C1CC1)C1OC1c1ccccc1 (stereo not drawn)
inactive: [7] 96 % of control | [8] 100 % of control | [9] 94 % of control

O=S(=O)(CCS(=O)(=O)c1ccccc1)c1ccccc1
inactive: dose: 50.0 mg/kg/injection, schedule: Q01DX009 (ip), vehicle: saline 94 % of control | [1] 92 % of control | dose: 150.0 mg/kg/injection, schedule: Q01DX009 (ip), vehicle: saline 97 % of control | [2] 92 % of control | [3] 88 % of control
